Reference: PubChem BioAssay AID1963854 (Molecular Pharmacology Branch, DTP, NCI, 2024)

Test system: 186277-243-T-J2-PDC complex spheroid viability
Assay: Anticancer human tumor 186277-243-T-J2-PDC patient-derived colon adenocarcinoma cell line growth inhibition [POLQ]
Conditions: for IC50: curve of first compound; for viability, T/C: stronger effect = lower value
Method in brief: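 Complex spheroid viability model combining PDC tumour cells with endothelial (HUVEC) and MSC stromal cells. Novobiocin, ART-558 or RP6685 were tested singly and in combination with standard and investigational anticancer drugs. Each was titrated in half-log steps from near clinical Cmax, or from 10 microM where Cmax was unknown.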

[1] = second compound 0.0316 µM, first compound 0.0316 µM
[2] = second compound 0.0316 µM, first compound 0.1 µM
[3] = second compound 0.0316 µM, first compound 0.316 µM
[4] = second compound 0.0316 µM, first compound 1 µM
[5] = second compound 0.0316 µM, first compound 3.16 µM
[6] = second compound 0.0316 µM, first compound 10 µM
[7] = second compound 0.1 µM, first compound 0.0316 µM
[8] = second compound 0.1 µM, first compound 0.1 µM
[9] = second compound 0.1 µM, first compound 0.316 µM
[10] = second compound 0.1 µM, first compound 1 µM
[11] = second compound 0.1 µM, first compound 3.16 µM
[12] = second compound 0.1 µM, first compound 10 µM
[13] = second compound 0.316 µM, first compound 0.0316 µM
[14] = second compound 0.316 µM, first compound 0.1 µM
[15] = second compound 0.316 µM, first compound 0.316 µM
[16] = second compound 0.316 µM, first compound 1 µM
[17] = second compound 0.316 µM, first compound 3.16 µM
[18] = second compound 0.316 µM, first compound 10 µM
[19] = second compound 1 µM, first compound 0.0316 µM
[20] = second compound 1 µM, first compound 0.1 µM
[21] = second compound 1 µM, first compound 0.316 µM
[22] = second compound 1 µM, first compound 1 µM
[23] = second compound 1 µM, first compound 3.16 µM
[24] = second compound 1 µM, first compound 10 µM
[25] = second compound 3.16 µM, first compound 0.0316 µM
[26] = second compound 3.16 µM, first compound 0.1 µM
[27] = second compound 3.16 µM, first compound 0.316 µM
[28] = second compound 3.16 µM, first compound 1 µM
[29] = second compound 3.16 µM, first compound 3.16 µM
[30] = second compound 3.16 µM, first compound 10 µM
[31] = second compound 10 µM, first compound 0.0316 µM
[32] = second compound 10 µM, first compound 0.1 µM
[33] = second compound 10 µM, first compound 0.316 µM
[34] = second compound 10 µM, first compound 1 µM
[35] = second compound 10 µM, first compound 3.16 µM
[36] = second compound 10 µM, first compound 10 µM
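Note: spheroids exposed to compounds for seven days.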
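Throughout, for viability, T/C: 100% = DMSO vehicle control viability.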

## CC1COCCN1c1cc(C2(S(C)(=N)=O)CC2)nc(-c2ccnc3[nH]ccc23)n1 (stereo unspecified) + Nc1ccc(C#CCN(C(=O)Cc2ncc(C(F)(F)F)cc2C(F)(F)F)c2ccc(F)cc2)nn1
Second compound 0.0316 µM
  IC50: 1810 nM
Second compound 0.1 µM
  IC50: 1790 nM
Second compound 0.316 µM
  IC50: 1890 nM
Second compound 1 µM
  IC50: 1780 nM
Second compound 3.16 µM
  IC50: 1660 nM
Second compound 10 µM
  IC50: 1640 nM
[1]
  viability, T/C: 103%
[2]
  viability, T/C: 96.5%
[3]
  viability, T/C: 102%
[4]
  viability, T/C: 88.1%
[5]
  viability, T/C: 14.1%
[6]
  viability, T/C: 9.47%
[7]
  viability, T/C: 97.2%
[8]
  viability, T/C: 90.5%
[9]
  viability, T/C: 93%
[10]
  viability, T/C: 85.9%
[11]
  viability, T/C: 14.8%
[12]
  viability, T/C: 10.2%
[13]
  viability, T/C: 109%
[14]
  viability, T/C: 102%
[15]
  viability, T/C: 110%
[16]
  viability, T/C: 93.6%
[17]
  viability, T/C: 14.8%
[18]
  viability, T/C: 10.7%
[19]
  viability, T/C: 99.4%
[20]
  viability, T/C: 105%
[21]
  viability, T/C: 98.8%
[22]
  viability, T/C: 84.8%
[23]
  viability, T/C: 15.2%
[24]
  viability, T/C: 8.83%
[25]
  viability, T/C: 109%
[26]
  viability, T/C: 104%
[27]
  viability, T/C: 118%
[28]
  viability, T/C: 78.7%
[29]
  viability, T/C: 15%
[30]
  viability, T/C: 8.91%
[31]
  viability, T/C: 105%
[32]
  viability, T/C: 94.5%
[33]
  viability, T/C: 97.6%
[34]
  viability, T/C: 77.1%
[35]
  viability, T/C: 14.3%
[36]
  viability, T/C: 8.26%

## CC(=O)O[C@H]1C(=O)[C@@]2(C)[C@H]([C@H](OC(=O)c3ccccc3)[C@]3(O)C[C@H](OC(=O)[C@H](O)[C@@H](NC(=O)c4ccccc4)c4ccccc4)C(C)=C1C3(C)C)[C@]1(OC(C)=O)CO[C@@H]1C[C@@H]2O + COC1C(OC(N)=O)C(O)C(Oc2ccc3c(O)c(NC(=O)c4ccc(O)c(CC=C(C)C)c4)c(=O)oc3c2C)OC1(C)C
Second compound 0.0316 µM
  IC50: < 9.49 nM
Second compound 0.1 µM
  IC50: < 9.49 nM
Second compound 0.316 µM
  IC50: < 9.49 nM
Second compound 1 µM
  IC50: < 9.49 nM
Second compound 3.16 µM
  IC50: < 9.49 nM
Second compound 10 µM
  IC50: < 9.49 nM
Second compound 0.0316 µM, first compound 0.00949 µM
  viability, T/C: 18.8%
Second compound 0.0316 µM, first compound 0.03 µM
  viability, T/C: 6.51%
Second compound 0.0316 µM, first compound 0.0949 µM
  viability, T/C: 3.77%
Second compound 0.0316 µM, first compound 0.3 µM
  viability, T/C: 2.87%
Second compound 0.0316 µM, first compound 0.949 µM
  viability, T/C: 2.1%
Second compound 0.0316 µM, first compound 3 µM
  viability, T/C: 2.04%
Second compound 0.1 µM, first compound 0.00949 µM
  viability, T/C: 17.1%
Second compound 0.1 µM, first compound 0.03 µM
  viability, T/C: 5.55%
Second compound 0.1 µM, first compound 0.0949 µM
  viability, T/C: 3.16%
Second compound 0.1 µM, first compound 0.3 µM
  viability, T/C: 3.36%
Second compound 0.1 µM, first compound 0.949 µM
  viability, T/C: 2.39%
Second compound 0.1 µM, first compound 3 µM
  viability, T/C: 2.52%
Second compound 0.316 µM, first compound 0.00949 µM
  viability, T/C: 20.7%
Second compound 0.316 µM, first compound 0.03 µM
  viability, T/C: 5.59%
Second compound 0.316 µM, first compound 0.0949 µM
  viability, T/C: 3.78%
Second compound 0.316 µM, first compound 0.3 µM
  viability, T/C: 2.55%
Second compound 0.316 µM, first compound 0.949 µM
  viability, T/C: 2.77%
Second compound 0.316 µM, first compound 3 µM
  viability, T/C: 2.42%
Second compound 1 µM, first compound 0.00949 µM
  viability, T/C: 19%
Second compound 1 µM, first compound 0.03 µM
  viability, T/C: 5.89%
Second compound 1 µM, first compound 0.0949 µM
  viability, T/C: 3.25%
Second compound 1 µM, first compound 0.3 µM
  viability, T/C: 3.12%
Second compound 1 µM, first compound 0.949 µM
  viability, T/C: 2.59%
Second compound 1 µM, first compound 3 µM
  viability, T/C: 2.05%
Second compound 3.16 µM, first compound 0.00949 µM
  viability, T/C: 17%
Second compound 3.16 µM, first compound 0.03 µM
  viability, T/C: 6.12%
Second compound 3.16 µM, first compound 0.0949 µM
  viability, T/C: 3.2%
Second compound 3.16 µM, first compound 0.3 µM
  viability, T/C: 2.83%
Second compound 3.16 µM, first compound 0.949 µM
  viability, T/C: 3.06%
Second compound 3.16 µM, first compound 3 µM
  viability, T/C: 2.28%
Second compound 10 µM, first compound 0.00949 µM
  viability, T/C: 19.6%
Second compound 10 µM, first compound 0.03 µM
  viability, T/C: 5.72%
Second compound 10 µM, first compound 0.0949 µM
  viability, T/C: 3.65%
Second compound 10 µM, first compound 0.3 µM
  viability, T/C: 2.92%
Second compound 10 µM, first compound 0.949 µM
  viability, T/C: 2.88%
Second compound 10 µM, first compound 3 µM
  viability, T/C: 2.55%

## C=CC(=O)N1CCN(c2nc(=O)n(-c3c(C)ccnc3C(C)C)c3nc(-c4c(O)cccc4F)c(F)cc23)C(C)C1 (stereo unspecified) + Nc1ccc(C#CCN(C(=O)Cc2ncc(C(F)(F)F)cc2C(F)(F)F)c2ccc(F)cc2)nn1
Second compound 0.0316 µM
  IC50: > 10000 nM
Second compound 0.1 µM
  IC50: > 10000 nM
Second compound 0.316 µM
  IC50: > 10000 nM
Second compound 1 µM
  IC50: > 10000 nM
Second compound 3.16 µM
  IC50: > 10000 nM
Second compound 10 µM
  IC50: > 10000 nM
[1]
  viability, T/C: 98.7%
[2]
  viability, T/C: 84.2%
[3]
  viability, T/C: 96.2%
[4]
  viability, T/C: 83.5%
[5]
  viability, T/C: 115%
[6]
  viability, T/C: 101%
[7]
  viability, T/C: 93.1%
[8]
  viability, T/C: 94.5%
[9]
  viability, T/C: 102%
[10]
  viability, T/C: 103%
[11]
  viability, T/C: 95.1%
[12]
  viability, T/C: 112%
[13]
  viability, T/C: 91%
[14]
  viability, T/C: 106%
[15]
  viability, T/C: 100%
[16]
  viability, T/C: 96.1%
[17]
  viability, T/C: 92.6%
[18]
  viability, T/C: 100%
[19]
  viability, T/C: 91.8%
[20]
  viability, T/C: 101%
[21]
  viability, T/C: 90%
[22]
  viability, T/C: 87.1%
[23]
  viability, T/C: 96%
[24]
  viability, T/C: 104%
[25]
  viability, T/C: 97.6%
[26]
  viability, T/C: 92.3%
[27]
  viability, T/C: 97.7%
[28]
  viability, T/C: 102%
[29]
  viability, T/C: 99.3%
[30]
  viability, T/C: 101%
[31]
  viability, T/C: 112%
[32]
  viability, T/C: 99.9%
[33]
  viability, T/C: 107%
[34]
  viability, T/C: 101%
[35]
  viability, T/C: 95.9%
[36]
  viability, T/C: 105%
